The results in this text go back to ChEMBL document CHEMBL3991601, “The target landscape of clinical kinase drugs” (Science, 2017).

For one test, the target named is Deoxycytidine kinase (Homo sapiens, UniProt P27707).
The target in test [1] is Adenylate kinase 2, mitochondrial (Homo sapiens, UniProt P54819).
Test [2] concerns the target T1, Breakpoint cluster region protein (Homo sapiens, UniProt P11274).
T1 sequence (P11274 whole entry): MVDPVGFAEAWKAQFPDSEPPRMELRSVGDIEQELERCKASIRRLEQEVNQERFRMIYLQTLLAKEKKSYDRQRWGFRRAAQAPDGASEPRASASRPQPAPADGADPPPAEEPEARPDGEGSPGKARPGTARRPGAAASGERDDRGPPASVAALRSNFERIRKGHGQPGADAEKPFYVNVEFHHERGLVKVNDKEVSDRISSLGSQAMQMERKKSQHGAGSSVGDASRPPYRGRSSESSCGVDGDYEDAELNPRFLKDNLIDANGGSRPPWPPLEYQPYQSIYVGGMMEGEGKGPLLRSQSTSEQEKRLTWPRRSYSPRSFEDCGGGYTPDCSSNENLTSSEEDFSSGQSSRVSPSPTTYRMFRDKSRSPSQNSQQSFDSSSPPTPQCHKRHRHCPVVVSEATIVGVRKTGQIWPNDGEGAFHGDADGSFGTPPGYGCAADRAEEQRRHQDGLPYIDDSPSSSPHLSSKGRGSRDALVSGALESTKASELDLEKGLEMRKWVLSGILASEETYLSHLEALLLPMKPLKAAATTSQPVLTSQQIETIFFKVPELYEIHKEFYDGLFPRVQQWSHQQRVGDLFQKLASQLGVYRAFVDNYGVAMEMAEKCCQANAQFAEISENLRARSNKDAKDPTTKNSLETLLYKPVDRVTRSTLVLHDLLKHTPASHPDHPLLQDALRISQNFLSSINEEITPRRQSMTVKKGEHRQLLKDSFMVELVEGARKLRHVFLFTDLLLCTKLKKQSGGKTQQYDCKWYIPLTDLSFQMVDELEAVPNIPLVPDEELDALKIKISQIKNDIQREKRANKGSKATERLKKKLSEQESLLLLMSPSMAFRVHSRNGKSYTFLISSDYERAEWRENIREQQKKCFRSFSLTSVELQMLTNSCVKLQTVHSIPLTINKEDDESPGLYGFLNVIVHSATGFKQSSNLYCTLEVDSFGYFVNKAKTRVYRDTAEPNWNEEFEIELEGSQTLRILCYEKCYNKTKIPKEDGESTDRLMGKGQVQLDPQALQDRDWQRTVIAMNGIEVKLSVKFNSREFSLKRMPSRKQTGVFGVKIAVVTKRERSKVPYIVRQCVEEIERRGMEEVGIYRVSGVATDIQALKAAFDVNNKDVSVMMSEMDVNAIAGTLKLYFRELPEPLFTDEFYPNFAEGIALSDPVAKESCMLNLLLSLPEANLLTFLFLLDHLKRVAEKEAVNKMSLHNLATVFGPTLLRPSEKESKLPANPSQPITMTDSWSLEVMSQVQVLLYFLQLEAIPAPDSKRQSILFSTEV

Test [3] deals with T2, Serine/threonine-protein kinase STK11 (Homo sapiens, UniProt Q15831).
T2 sequence (Q15831 whole entry): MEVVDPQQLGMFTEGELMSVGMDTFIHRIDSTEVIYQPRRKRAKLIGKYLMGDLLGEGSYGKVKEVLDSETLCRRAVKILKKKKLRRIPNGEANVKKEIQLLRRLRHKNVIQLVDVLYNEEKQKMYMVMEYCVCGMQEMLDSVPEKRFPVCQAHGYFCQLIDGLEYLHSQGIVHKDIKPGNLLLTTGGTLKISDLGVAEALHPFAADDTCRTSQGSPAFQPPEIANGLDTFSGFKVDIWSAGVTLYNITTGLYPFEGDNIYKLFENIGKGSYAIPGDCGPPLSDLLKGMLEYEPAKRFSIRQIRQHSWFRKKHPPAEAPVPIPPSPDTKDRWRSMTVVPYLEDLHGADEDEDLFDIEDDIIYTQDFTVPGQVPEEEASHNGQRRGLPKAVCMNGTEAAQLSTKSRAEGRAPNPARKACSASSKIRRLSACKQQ

The target in test [4] is T3, Serine/threonine-protein kinase D2 (Homo sapiens, UniProt Q9BZL6).
T3 sequence (Q9BZL6 whole entry): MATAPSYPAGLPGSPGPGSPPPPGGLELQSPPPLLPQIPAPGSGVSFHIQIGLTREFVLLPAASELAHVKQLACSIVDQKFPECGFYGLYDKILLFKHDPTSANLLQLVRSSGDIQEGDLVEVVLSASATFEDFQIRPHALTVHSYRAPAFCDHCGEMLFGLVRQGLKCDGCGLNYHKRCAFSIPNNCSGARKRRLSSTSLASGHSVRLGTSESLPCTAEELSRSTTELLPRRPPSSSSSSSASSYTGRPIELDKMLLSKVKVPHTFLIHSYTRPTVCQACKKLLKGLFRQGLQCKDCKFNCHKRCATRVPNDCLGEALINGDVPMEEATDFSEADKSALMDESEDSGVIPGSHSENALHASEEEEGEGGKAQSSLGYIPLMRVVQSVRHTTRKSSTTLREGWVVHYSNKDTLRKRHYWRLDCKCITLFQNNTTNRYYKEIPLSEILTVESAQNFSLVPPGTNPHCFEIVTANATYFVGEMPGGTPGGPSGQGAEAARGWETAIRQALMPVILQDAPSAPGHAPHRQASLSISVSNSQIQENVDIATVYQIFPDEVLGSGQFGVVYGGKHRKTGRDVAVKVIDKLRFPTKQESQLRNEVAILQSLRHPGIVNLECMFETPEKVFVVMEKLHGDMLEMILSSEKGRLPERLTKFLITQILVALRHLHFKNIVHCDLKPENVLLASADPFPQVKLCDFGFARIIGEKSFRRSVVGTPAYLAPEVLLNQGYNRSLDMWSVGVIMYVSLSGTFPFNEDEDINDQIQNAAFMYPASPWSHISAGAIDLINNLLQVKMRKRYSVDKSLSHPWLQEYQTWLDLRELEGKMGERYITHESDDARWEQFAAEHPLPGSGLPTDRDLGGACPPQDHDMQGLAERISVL

For test [5], the target named is Dual specificity mitogen-activated protein kinase kinase 1 (Homo sapiens, UniProt Q02750).
Sequence of Dual specificity mitogen-activated protein kinase kinase 1 (Q02750 whole entry): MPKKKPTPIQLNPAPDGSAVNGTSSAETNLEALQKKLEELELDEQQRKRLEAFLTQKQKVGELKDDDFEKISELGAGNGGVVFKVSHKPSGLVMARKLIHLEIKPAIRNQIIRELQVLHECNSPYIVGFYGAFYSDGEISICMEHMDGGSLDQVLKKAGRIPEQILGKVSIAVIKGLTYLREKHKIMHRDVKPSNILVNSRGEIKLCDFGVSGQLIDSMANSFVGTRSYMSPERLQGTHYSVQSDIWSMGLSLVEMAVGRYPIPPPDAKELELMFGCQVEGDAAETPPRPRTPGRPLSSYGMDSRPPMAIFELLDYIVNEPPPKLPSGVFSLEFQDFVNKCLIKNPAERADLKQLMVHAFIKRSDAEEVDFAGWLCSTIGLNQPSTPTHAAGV
Test [6] concerns the target Ribosomal protein S6 kinase alpha-6 (Homo sapiens, UniProt Q9UK32).

Calls of active or inactive are those of the source. For most assays here, no stated cut-off is given here; in the data, actives have a measured Kd and inactives only a lower limit.

Sequence of Deoxycytidine kinase (P27707 whole entry): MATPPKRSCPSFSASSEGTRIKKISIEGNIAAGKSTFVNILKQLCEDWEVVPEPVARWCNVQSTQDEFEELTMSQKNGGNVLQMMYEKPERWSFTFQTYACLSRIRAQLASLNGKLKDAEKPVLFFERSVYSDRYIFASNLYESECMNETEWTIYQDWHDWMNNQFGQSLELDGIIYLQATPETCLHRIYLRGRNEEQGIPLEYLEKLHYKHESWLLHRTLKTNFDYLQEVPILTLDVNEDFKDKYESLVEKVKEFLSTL
Sequence of Ribosomal protein S6 kinase alpha-6 (Q9UK32 whole entry): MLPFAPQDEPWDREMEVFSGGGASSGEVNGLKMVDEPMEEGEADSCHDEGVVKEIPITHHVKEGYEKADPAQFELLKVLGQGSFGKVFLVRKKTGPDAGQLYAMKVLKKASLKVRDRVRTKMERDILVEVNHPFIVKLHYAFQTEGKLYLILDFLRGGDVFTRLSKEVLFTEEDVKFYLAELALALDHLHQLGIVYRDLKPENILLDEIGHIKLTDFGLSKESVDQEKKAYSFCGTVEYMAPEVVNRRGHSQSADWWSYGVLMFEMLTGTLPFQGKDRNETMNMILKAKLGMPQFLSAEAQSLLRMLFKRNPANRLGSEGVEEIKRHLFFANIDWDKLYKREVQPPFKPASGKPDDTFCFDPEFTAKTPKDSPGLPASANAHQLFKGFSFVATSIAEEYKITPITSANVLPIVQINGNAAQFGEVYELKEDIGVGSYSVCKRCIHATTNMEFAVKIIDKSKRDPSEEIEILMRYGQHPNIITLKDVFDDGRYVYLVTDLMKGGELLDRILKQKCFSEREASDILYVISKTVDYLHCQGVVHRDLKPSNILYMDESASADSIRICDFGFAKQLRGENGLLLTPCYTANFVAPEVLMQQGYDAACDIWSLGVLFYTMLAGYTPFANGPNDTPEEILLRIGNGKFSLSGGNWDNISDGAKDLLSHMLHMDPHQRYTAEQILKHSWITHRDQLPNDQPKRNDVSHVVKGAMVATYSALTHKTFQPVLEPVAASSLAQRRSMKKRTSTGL

`CNC(=O)c1cc(Oc2ccc(NC(=O)Nc3ccc(Cl)c(C(F)(F)F)c3)c(F)c2)ccn1` [REGORAFENIB]: the Kd at Deoxycytidine kinase is > 30 µM (inactive); in test [1], > 30 µM (inactive); in test [2], 0.739 µM (active); in test [3], > 30 µM (inactive); in test [4], > 30 µM (inactive); in test [5], > 30 µM (inactive). For the same molecule, the Kd in test [6] is > 30 µM (inactive).
As to `Cc1ccc(-n2nc(C(C)(C)C)cc2NC(=O)NCc2cc(F)ccc2Oc2ccc3c(cnn3CCO)c2)cc1` [PEXMETINIB], the Kd is > 30 µM (inactive) on Deoxycytidine kinase; > 30 µM (inactive) in test [1]; 0.681 µM (active) in test [2]; > 30 µM (inactive) in test [3]; > 30 µM (inactive) in test [4]; > 30 µM (inactive) in test [5]. Besides, the Kd in test [6] was > 30 µM (inactive).
As for `CCN1CCN(Cc2ccc(-c3cc4c(N[C@H](C)c5ccccc5)ncnc4[nH]3)cc2)CC1` [AEE-788], the Kd was > 30 µM (inactive) at Deoxycytidine kinase; > 30 µM (inactive) in test [1]; 0.495 µM (active) in test [2]; > 30 µM (inactive) in test [3]; > 30 µM (inactive) in test [4]; > 30 µM (inactive) in test [5]. Besides, the Kd in test [6] is > 30 µM (inactive).
For the molecule `Cc1ccc(NC(=O)c2ccc(CN3CC[C@H](N(C)C)C3)c(C(F)(F)F)c2)cc1Nc1nccc(-c2cncnc2)n1` [BAFETINIB], the Kd at Deoxycytidine kinase was > 30 µM (inactive); in test [1] it was > 30 µM (inactive); in test [2], 0.015 µM (active); in test [3], > 30 µM (inactive); in test [4], > 30 µM (inactive); in test [5], > 30 µM (inactive). For the same molecule, the Kd in test [6] is > 30 µM (inactive).
Take `CN(C)C(=O)c1cc2cnc(Nc3ccc(N4CCNCC4)cn3)nc2n1C1CCCC1` [RIBOCICLIB]: the Kd was > 30 µM (inactive) at Deoxycytidine kinase; > 30 µM (inactive) in test [1]; > 30 µM (inactive) in test [2]; > 30 µM (inactive) in test [3]; 25 µM (active) in test [4]; > 30 µM (inactive) in test [5]. The Kd in test [6] is > 30 µM (inactive).
`COCCNCc1ccc(-c2cc3nccc(Oc4ccc(NC(=S)NC(=O)Cc5ccc(F)cc5)cc4F)c3s2)nc1` [GLESATINIB]: the Kd on Deoxycytidine kinase was > 30 µM (inactive); in test [1], > 30 µM (inactive); in test [2], 0.858 µM (active); in test [3], > 30 µM (inactive); in test [4], > 30 µM (inactive); in test [5], > 30 µM (inactive). Moreover, the Kd in test [6] was > 30 µM (inactive).
As for `Cn1cc(-c2ccc3nnc(C(F)(F)c4ccc5ncccc5c4)n3n2)cn1` [JNJ-38877605], the Kd (on Deoxycytidine kinase; in test [1]; in test [2]; in test [3]; in test [4]; in test [5]) was > 30 µM (inactive) throughout. The Kd in test [6] is > 30 µM (inactive).
`CC[C@H](Nc1ncnc2[nH]cnc12)c1nc2cccc(F)c2c(=O)n1-c1ccccc1` [IDELALISIB]: the Kd (on Deoxycytidine kinase; in test [1]; in test [2]; in test [3]; in test [4]; in test [5]) was > 30 µM (inactive) in each case. Moreover, the Kd in test [6] is > 30 µM (inactive).
Consider `CN1CC[C@@H](c2c(O)cc(O)c3c(=O)cc(-c4ccccc4Cl)oc23)[C@@H]1CO`, for which the Kd (at Deoxycytidine kinase; in test [1]; in test [2]; in test [3]; in test [4]; in test [5]) was > 30 µM (inactive) in each case. In addition, in test [6], the Kd was > 30 µM (inactive).
Regarding `CN1N=C(N)c2cn([C@@H]3O[C@H](COP(=O)(O)O)[C@@H](O)[C@H]3O)c3ncnc1c23` [TRICIRIBINE PHOSPHATE], the Kd (on Deoxycytidine kinase; in test [1]; in test [2]; in test [3]; in test [4]; in test [5]) was > 30 µM (inactive) throughout. The Kd in test [6] was > 30 µM (inactive).
In the case of `O=C(c1ccc(F)c(F)c1Nc1ccc(I)cc1F)N1CC(O)([C@@H]2CCCCN2)C1` [COBIMETINIB], the Kd is > 30 µM (inactive) at Deoxycytidine kinase; > 30 µM (inactive) in test [1]; > 30 µM (inactive) in test [2]; > 30 µM (inactive) in test [3]; > 30 µM (inactive) in test [4]; 0.309 µM (active) in test [5]. For the same molecule, the Kd in test [6] is > 30 µM (inactive).
With `Cc1cc(-c2cc(O)ccc2Cl)cc2nnc(Nc3ccc(OCCN4CCCC4)cc3)nc12`, the Kd at Deoxycytidine kinase is > 30 µM (inactive); in test [1], > 30 µM (inactive); in test [2] it was 0.001 µM (active); in test [3] it was > 30 µM (inactive); in test [4], 0.003 µM (active); in test [5], > 30 µM (inactive). The Kd in test [6] is > 30 µM (inactive).

Usually Kd stands for a measure of binding affinity in units of concentration.
